Test results taken from US12286425B2, “Herbicidally active bicyclic benzamides” (Bayer Aktiengesellschaft, priority 2018, dated 2025).

Columns and labels:
Assay type in all cases: in vivo
SETVI = experiment: Pre-emergence herbicidal action (PE), greenhouse pot test, SETVI; settings: pre-emergence (PE), Setaria viridis, application rate 320, scored visually after about 3 weeks
Description: (§1) 1. Pre-emergence herbicidal action and crop plant compatibility (pre-emergence, PE) Seeds of monocotyledonous and dicotyledonous weed plants and crop plants are placed in plastic or organic planting pots and covered with soil. The compounds of the invention, formulated in the form of wettable powders (WP) or as emulsion concentrates (EC), are then applied onto the surface of the covering soil as aqueous suspension or emulsion with addition of 0.5% additive at a water application rate of […] (converted). After the treatment, the pots are placed in a greenhouse and kept under good growth conditions for the trial plants. After about 3 weeks, the effect of the preparations is scored visually in comparison with untreated controls as percentages. The tables below show the herbicidal activity of numerous compounds according to the invention against important harmful plants. For example, 100% activity=the plants have died, 0% activity=like control plants.

[1] = tested on: monocotyledonous and dicotyledonous weed plants and crop plants; experiment: Pre-emergence herbicidal action and crop plant compatibility (PE), other species and comparison with A-117; settings: pre-emergence (PE), application rate 320, scored visually after about 3 weeks; for Herbicidal activity ABUTH: Abutilon theophrasti; for Herbicidal activity AMARE: Amaranthus retroflexus; for Herbicidal activity CYPES: Cyperus esculentus; for Herbicidal activity ECHCG: Echinochloa crus-galli; for Herbicidal activity MATIN: Matricaria inodora; for Herbicidal activity POLCO: Polygonum convolvulus; for Herbicidal activity STEME: Stellaria media; for Herbicidal activity VIOTR: Viola tricolor
Description: as §1
(§2) In a comparative experiment, by way of example, the herbicidal activity of compound No. 2-13 according to the invention was compared to that of compound No. A-117 known from WO 2013/076315 A2.

AVEFA = experiment: Pre-emergence herbicidal action (PE), greenhouse pot test, AVEFA; settings: pre-emergence (PE); application rate 320; scored visually after about 3 weeks vs untreated controls; 100% = plants have died, 0% = like control plants
Description: as §1

[2] = tested on: monocotyledonous and dicotyledonous weeds and crop plants; experiment: Post-emergence herbicidal action and crop plant compatibility (PO), including comparison with A-117; settings: post-emergence (PO), application rate 80, rated visually after about 3 weeks; for Herbicidal activity ABUTH: Abutilon theophrasti; for Herbicidal activity AMARE: Amaranthus retroflexus; for Herbicidal activity CYPES: Cyperus esculentus; for Herbicidal activity ECHCG: Echinochloa crus-galli; for Herbicidal activity PHBPU: Ipomoea purpurea; for Herbicidal activity SETVI: Setaria viridis; for Herbicidal activity STEME: Stellaria media; for Herbicidal activity VIOTR: Viola tricolor
Experimental: 2. Post-emergence herbicidal action and crop plant compatibility (post-emergence, PO) Seeds of monocotyledonous and dicotyledonous weeds and crop plants are placed in sandy loam in plastic or organic planting pots, covered with soil and cultivated in a greenhouse under controlled growth conditions. 2 to 3 weeks after sowing, the test plants are treated at the one-leaf stage. The compounds of the invention, formulated in the form of wettable powders (WP) or as emulsion concentrates (EC), are then sprayed onto the green parts of the plants as aqueous suspension or emulsion with addition of 0.5% additive at a water application rate of […] (converted). After the test plants had been kept in the greenhouse under optimum growth conditions for about 3 weeks, the activity of the preparations is rated visually in comparison to untreated controls. The tables below show the herbicidal activity of numerous compounds according to the invention against important harmful plants. For example, 100% activity=the plants have died, 0% activity=like control plants.
as §2

| Structure (SMILES) | Herbicidal activity SETVI (SETVI) [%] | Herbicidal activity ABUTH [1] [%] | Herbicidal activity AMARE [1] [%] | Herbicidal activity CYPES [1] [%] | Herbicidal activity ECHCG [1] [%] | Herbicidal activity MATIN [1] [%] | Herbicidal activity POLCO [1] [%] | Herbicidal activity STEME [1] [%] | Herbicidal activity VIOTR [1] [%] | herbicidal activity AVEFA (AVEFA) [%] | Herbicidal activity ABUTH [2] [%] | Herbicidal activity AMARE [2] [%] | Herbicidal activity CYPES [2] [%] | Herbicidal activity ECHCG [2] [%] | Herbicidal activity PHBPU [2] [%] | Herbicidal activity SETVI [2] [%] | Herbicidal activity STEME [2] [%] | Herbicidal activity VIOTR [2] [%] | further results |
| --- | --- | --- | --- | --- | --- | --- | --- | --- | --- | --- | --- | --- | --- | --- | --- | --- | --- | --- | --- |
| CCn1nnnc1NC(=O)c1ccc(C(F)(F)F)c2c1OCC[S+]2[O-] (stereo not drawn) [Example 3-16] | 100 | 100 | 100 | 100 | 100 | 100 | 100 | 100 | 100 | 100 | 100 | 100 | 90 | 90 | 100 | 90 | 100 | 100 | herbicidal activity AVEFA ([2]; Avena fatua): 100%; Herbicidal activity POLCO ([2]; Polygonum convolvulus): 90%; Herbicidal activity VERPE ([2]; Veronica persica): 100% |
| CCn1nnnc1NC(=O)c1ccc(C(F)(F)F)c2c1OCCS2(=O)=O [Example 3-19] | 100 | 100 | 100 | 100 | 100 | 100 | 90 | 90 | 100 | 90 | 90 | 90 | 80 | 100 | 90 | 90 | 100 | 100 |  |
